# Laboratory results from the supplement of paper PMC6045584.
# ± gives the standard deviation of the averaged measurements.
# Compound: CN1CC[C@H](c2c(O)cc(O)c3c(=O)cc(-c4ccccc4Cl)oc23)[C@H](O)C1 [FLAVOPIRIDOL]
# Experiment: surviving fraction relative to DMSO-only wells; higher = less growth inhibition
# Settings: exposure time: 5 days
# In short: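 Five days of continuous inhibitor exposure, at 0.5, 1, 5, 10, 50, 100, 500 and 1000 nM, followed a 24-hour period after log-phase tumour cell lines were seeded at 250–500 cells per well in 384-well plates. Surviving fraction was derived from CellTiter-Glo luminescence relative to the median of DMSO-only wells. Plates were read after 10 minutes at room temperature, and lines screened three times were kept only if replicate Pearson r >0.7 and median Z' >0.3.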
Test System,surviving fraction (0.5 nM),surviving fraction (1 nM),surviving fraction (5 nM),surviving fraction (10 nM),surviving fraction (50 nM),surviving fraction (100 nM),surviving fraction (500 nM),surviving fraction (1000 nM)
SCC90 HEADNECK,1.07 ± 0.099,1.08 ± 0.072,1.12 ± 0.085,1.07 ± 0.12,0.834 ± 0.079,0.378 ± 0.086,0.0317 ± 0.0057,0.027 ± 0.002
SG27 HEADNECK,1.16 ± 0.11,1.04 ± 0.04,0.987 ± 0.12,1.02 ± 0.3,0.844 ± 0.087,0.368 ± 0.063,0.0753 ± 0.047,0.071 ± 0.032
SG28 HEADNECK,1.11 ± 0.096,1.1 ± 0.023,1.02 ± 0.081,1.04 ± 0.099,0.594 ± 0.089,0.0495 ± 0.0064,0.0315 ± 0.00071,0.032 ± 0.0028
SG31 HEADNECK,1.51 ± 0.26,1.23 ± 0.055,0.964 ± 0.096,0.988 ± 0.053,0.483 ± 0.057,0.147 ± 0.038,0.0443 ± 0.024,0.027 ± 0.0046
SG32 HEADNECK,1.14 ± 0.2,1.28 ± 0.092,1.07 ± 0.24,0.823 ± 0.14,0.227 ± 0.063,0.048 ± 0.01,0.0283 ± 0.013,0.0237 ± 0.0046
SG43 HEADNECK,1.04 ± 0.084,1.18 ± 0.081,0.885 ± 0.11,1.07 ± 0.044,0.812 ± 0.049,0.562 ± 0.12,0.028 ± 0.0062,0.033 ± 0.0076
SIHA CERVIX,1.07 ± 0.041,1.05 ± 0.067,1.1 ± 0.081,1.03 ± 0.032,0.714 ± 0.045,0.336 ± 0.056,0.0243 ± 0.0015,0.023 ± 0.001
SJSA1 BONE,0.135 ± 0.0078,0.272 ± 0.042,1.71 ± 0.2,0.209 ± 0.011,0.0583 ± 0.0059,1.74 ± 0.06,1.64 ± 0.076,0.776 ± 0.074
SKBR3 BREAST,1.15 ± 0.074,1.0877 ± 0.00058,1.05 ± 0.022,1.06 ± 0.092,0.541 ± 0.051,0.207 ± 0.035,0.032 ± 0.015,0.0233 ± 0.0031
SNU475 LIVER,1.05 ± 0.041,1 ± 0.032,1.09 ± 0.015,1.07 ± 0.072,1.02 ± 0.026,0.438 ± 0.048,0.0423 ± 0.0046,0.0407 ± 0.0029
SUM44 BREAST,1.14 ± 0.35,1.17 ± 0.16,1.22 ± 0.23,1.22 ± 0.27,1.08 ± 0.24,0.283 ± 0.012,0.119 ± 0.039,0.104 ± 0.036
SUM149 BREAST,0.955 ± 0.031,1.07 ± 0.051,1.06 ± 0.033,1.06 ± 0.087,0.681 ± 0.027,0.0783 ± 0.029,0.018 ± 0.0027,0.0183 ± 0.0032
SUM149.B1*.S BREAST,1.1 ± 0.047,1.09 ± 0.024,1.08 ± 0.063,1.044 ± 0.0039,1 ± 0.037,0.459 ± 0.06,0.0462 ± 0.0049,0.0412 ± 0.0016
SUM159 BREAST,1.08 ± 0.024,1.08 ± 0.021,1.09 ± 0.014,1.049 ± 0.0055,1.08 ± 0.026,0.44 ± 0.082,0.0913 ± 0.0097,0.0957 ± 0.0072
SYO1 SYNOVIAL,1.02 ± 0.044,1 ± 0.064,0.972 ± 0.073,0.881 ± 0.05,0.515 ± 0.0082,0.144 ± 0.0063,0.0511 ± 0.0021,0.0522 ± 0.004
T47D BREAST,0.974 ± 0.18,1.07 ± 0.022,1.01 ± 0.2,1.11 ± 0.039,1.15 ± 0.051,0.67 ± 0.073,0.195 ± 0.0027,0.148 ± 0.0041
U2OS BONE,1.04 ± 0.049,1.03 ± 0.042,1.1 ± 0.028,1.09 ± 0.053,0.956 ± 0.017,0.112 ± 0.015,0.033 ± 0.0017,0.03 ± 0.001
VCAP PROSTATE,1.05 ± 0.085,1.02 ± 0.079,1.42 ± 0.065,1.52 ± 0.076,0.87 ± 0.058,0.324 ± 0.031,0.042 ± 0.01,0.051 ± 0.031
VP229 BREAST,1.13 ± 0.17,1.11 ± 0.062,1.16 ± 0.073,0.957 ± 0.12,0.564 ± 0.095,0.211 ± 0.13,0.0273 ± 0.0031,0.0273 ± 0.004
YAMATO SYNOVIAL,1.12 ± 0.068,1.08 ± 0.053,1.25 ± 0.061,1.11 ± 0.11,0.682 ± 0.082,0.306 ± 0.023,0.26 ± 0.0092,0.29 ± 0.013
ZR751 BREAST,1.28 ± 0.14,1.25 ± 0.051,1.21 ± 0.037,1.25 ± 0.033,1.108 ± 0.0081,0.453 ± 0.057,0.089 ± 0.0095,0.0853 ± 0.0065
